# Measured values from ChEMBL document CHEMBL4627254, “Design and synthesis of (E)-1,2-diphenylethene-based EZH2 inhibitors” (Bioorg Med Chem Lett, 2020).
# Test system: not listed separately
# Assay: Antiproliferative activity against over expressing […] human WSU-DLCL2 cells
# Type: functional
# Conditions: WSUDLCL2
row,SMILES,IC50 [µM]
1,CCN(c1cc(/C=C/c2ccc(CN3CCOCC3)cc2)cc(C(=O)NCc2c3c(c(C)[nH]c2=O)CCCC3)c1C)C1CCOCC1,> 30
2,CCN(c1cc(/C=C/c2ccc(CN3C[C@H]4C[C@@H]3CO4)c(F)c2)cc(C(=O)NCc2c(C)c3c([nH]c2=O)CCCC3)c1C)C1CCOCC1,6.18
3,CCN(c1cc(/C=C/c2ccc(CN3CCOCC3)cc2)cc(C(=O)NCc2c(C)c3c([nH]c2=O)CCCC3)c1C)C1CCOCC1,> 30
4,CCN(c1cc(/C=C/c2ccc(CN3C[C@@H]4C[C@H]3CO4)c(F)c2)cc(C(=O)NCc2c(C)c3c([nH]c2=O)CCCC3)c1C)C1CCOCC1,4.58
5,CCN(c1cc(/C=C/c2ccc(CN3C[C@H]4C[C@@H]3CO4)c(F)c2)cc(C(=O)NCc2c3c(c(C)[nH]c2=O)CCCC3)c1C)C1CCOCC1,5.85
6,CCN(c1cc(/C=C/c2ccc(CN3C[C@@H](C)O[C@@H](C)C3)cc2)cc(C(=O)NCc2c(C)c3c([nH]c2=O)CCCC3)c1C)C1CCOCC1,> 30
7,CCN(c1cc(/C=C/c2ccc(S(=O)(=O)N3CCOCC3)cc2)cc(C(=O)NCc2c3c(c(C)[nH]c2=O)CCCC3)c1C)C1CCOCC1,> 30
8,CCN(c1cc(/C=C/c2ccc(N3CCOCC3)nc2)cc(C(=O)NCc2c3c(c(C)[nH]c2=O)CCCC3)c1C)C1CCOCC1,12.6
9,CCN(c1cc(-c2ccc(CN3CCOCC3)cc2)cc(C(=O)NCc2c(C)cc(C)[nH]c2=O)c1C)C1CCOCC1 [TAZEMETOSTAT],17.8
10,CCN(c1cc(/C=C/c2cccc(CN3CCOCC3)c2)cc(C(=O)NCc2c3c(c(C)[nH]c2=O)CCCC3)c1C)C1CCOCC1,> 30
11,CCN(c1cc(/C=C/c2cccc(CN(C)C)c2)cc(C(=O)NCc2c3c(c(C)[nH]c2=O)CCCC3)c1C)C1CCOCC1,1.61
12,CCN(c1cc(/C=C/c2ccc(N3CCOCC3)nc2)cc(C(=O)NCc2c(C)c3c([nH]c2=O)CCCC3)c1C)C1CCOCC1,25.8
13,CCN(c1cc(/C=C/c2ccc(CN3CCN(C)CC3)cc2)cc(C(=O)NCc2c3c(c(C)[nH]c2=O)CCCC3)c1C)C1CCOCC1,2.58
14,CCN(c1cc(/C=C/c2ccc(/C=C/C(=O)OC)cc2)cc(C(=O)NCc2c3c(c(C)[nH]c2=O)CCCC3)c1C)C1CCOCC1,21.2

# Test system: SUD4
# Assay: Antiproliferative activity against over expressing […] human SUDHL4 cells
# Type: functional, cell-based
# Conditions: SU-DHL-4
row,SMILES,IC50 [µM]
1,CCN(c1cc(/C=C/c2ccc(CN3CCOCC3)cc2)cc(C(=O)NCc2c3c(c(C)[nH]c2=O)CCCC3)c1C)C1CCOCC1,> 30
2,CCN(c1cc(/C=C/c2ccc(CN3C[C@H]4C[C@@H]3CO4)c(F)c2)cc(C(=O)NCc2c(C)c3c([nH]c2=O)CCCC3)c1C)C1CCOCC1,> 30
3,CCN(c1cc(/C=C/c2ccc(CN3CCOCC3)cc2)cc(C(=O)NCc2c(C)c3c([nH]c2=O)CCCC3)c1C)C1CCOCC1,25.7
4,CCN(c1cc(/C=C/c2ccc(CN3C[C@@H]4C[C@H]3CO4)c(F)c2)cc(C(=O)NCc2c(C)c3c([nH]c2=O)CCCC3)c1C)C1CCOCC1,10.5
5,CCN(c1cc(/C=C/c2ccc(CN3C[C@H]4C[C@@H]3CO4)c(F)c2)cc(C(=O)NCc2c3c(c(C)[nH]c2=O)CCCC3)c1C)C1CCOCC1,> 30
6,CCN(c1cc(/C=C/c2ccc(CN3C[C@@H](C)O[C@@H](C)C3)cc2)cc(C(=O)NCc2c(C)c3c([nH]c2=O)CCCC3)c1C)C1CCOCC1,> 30
7,CCN(c1cc(/C=C/c2ccc(N3CCOCC3)nc2)cc(C(=O)NCc2c3c(c(C)[nH]c2=O)CCCC3)c1C)C1CCOCC1,21.7
8,CCN(c1cc(-c2ccc(CN3CCOCC3)cc2)cc(C(=O)NCc2c(C)cc(C)[nH]c2=O)c1C)C1CCOCC1 [TAZEMETOSTAT],14.3
9,CCN(c1cc(/C=C/c2cccc(CN3CCOCC3)c2)cc(C(=O)NCc2c3c(c(C)[nH]c2=O)CCCC3)c1C)C1CCOCC1,> 30
10,CCN(c1cc(/C=C/c2cccc(CN(C)C)c2)cc(C(=O)NCc2c3c(c(C)[nH]c2=O)CCCC3)c1C)C1CCOCC1,2.34
11,CCN(c1cc(/C=C/c2ccc(N3CCOCC3)nc2)cc(C(=O)NCc2c(C)c3c([nH]c2=O)CCCC3)c1C)C1CCOCC1,> 30
12,CCN(c1cc(/C=C/c2ccc(CN3CCN(C)CC3)cc2)cc(C(=O)NCc2c3c(c(C)[nH]c2=O)CCCC3)c1C)C1CCOCC1,5.96

# Test system: MV4-11
# Assay: Antiproliferative activity against human MV4-11 cells
# Type: functional, cell-based
# Conditions: not given
row,SMILES,IC50 [µM]
1,CCN(c1cc(/C=C/c2ccc(CN3CCOCC3)cc2)cc(C(=O)NCc2c3c(c(C)[nH]c2=O)CCCC3)c1C)C1CCOCC1,6.41
2,CCN(c1cc(/C=C/c2ccc(CN3C[C@H]4C[C@@H]3CO4)c(F)c2)cc(C(=O)NCc2c(C)c3c([nH]c2=O)CCCC3)c1C)C1CCOCC1,> 30
3,CCN(c1cc(/C=C/c2ccc(CN3CCOCC3)cc2)cc(C(=O)NCc2c(C)c3c([nH]c2=O)CCCC3)c1C)C1CCOCC1,> 30
4,CCN(c1cc(/C=C/c2ccc(CN3C[C@@H]4C[C@H]3CO4)c(F)c2)cc(C(=O)NCc2c(C)c3c([nH]c2=O)CCCC3)c1C)C1CCOCC1,24.3
5,CCN(c1cc(/C=C/c2ccc(CN3C[C@H]4C[C@@H]3CO4)c(F)c2)cc(C(=O)NCc2c3c(c(C)[nH]c2=O)CCCC3)c1C)C1CCOCC1,> 30
6,CCN(c1cc(/C=C/c2ccc(CN3C[C@@H](C)O[C@@H](C)C3)cc2)cc(C(=O)NCc2c(C)c3c([nH]c2=O)CCCC3)c1C)C1CCOCC1,8.04
7,CCN(c1cc(/C=C/c2ccc(N3CCOCC3)nc2)cc(C(=O)NCc2c3c(c(C)[nH]c2=O)CCCC3)c1C)C1CCOCC1,> 30
8,CCN(c1cc(-c2ccc(CN3CCOCC3)cc2)cc(C(=O)NCc2c(C)cc(C)[nH]c2=O)c1C)C1CCOCC1 [TAZEMETOSTAT],22.4
9,CCN(c1cc(/C=C/c2cccc(CN3CCOCC3)c2)cc(C(=O)NCc2c3c(c(C)[nH]c2=O)CCCC3)c1C)C1CCOCC1,4.44
10,CCN(c1cc(/C=C/c2cccc(CN(C)C)c2)cc(C(=O)NCc2c3c(c(C)[nH]c2=O)CCCC3)c1C)C1CCOCC1,2.8
11,CCN(c1cc(/C=C/c2ccc(N3CCOCC3)nc2)cc(C(=O)NCc2c(C)c3c([nH]c2=O)CCCC3)c1C)C1CCOCC1,> 30
12,CCN(c1cc(/C=C/c2ccc(CN3CCN(C)CC3)cc2)cc(C(=O)NCc2c3c(c(C)[nH]c2=O)CCCC3)c1C)C1CCOCC1,> 30

# Test system: SUD4
# Assay: Induction of apoptosis in human SUDHL4 cells assessed as necrotic cells at 1 uM after 6 days by AnnexinV/propidium iodide staining based flow cytometry analysis (reference value: 0.737 %)
# Type: functional
# Conditions: not given
row,SMILES,Activity [%]
1,CCN(c1cc(/C=C/c2cccc(CN(C)C)c2)cc(C(=O)NCc2c3c(c(C)[nH]c2=O)CCCC3)c1C)C1CCOCC1,1.34

# Test system: SUD4
# Assay: Induction of apoptosis in human SUDHL4 cells assessed as viable cells at 1 uM after 6 days by AnnexinV/propidium iodide staining based flow cytometry analysis (reference value: 92.7 %)
# Type: functional
# Conditions: SU-DHL-4, 144 h, read-out: Activity
row,SMILES,viability at 1 µM [%]
1,CCN(c1cc(/C=C/c2cccc(CN(C)C)c2)cc(C(=O)NCc2c3c(c(C)[nH]c2=O)CCCC3)c1C)C1CCOCC1,62.3

# Test system: SUD4
# Assay: Induction of apoptosis in human SUDHL4 cells assessed as early apoptotic cells at 1 uM after 6 days by AnnexinV/propidium iodide staining based flow cytometry analysis (reference value: 0.061 %)
# Type: functional
# Conditions: not given
row,SMILES,Activity [%]
1,CCN(c1cc(/C=C/c2cccc(CN(C)C)c2)cc(C(=O)NCc2c3c(c(C)[nH]c2=O)CCCC3)c1C)C1CCOCC1,0.112

# Test system: SUD4
# Assay: Induction of apoptosis in human SUDHL4 cells assessed as late apoptotic cells at 1 uM after 6 days by AnnexinV/propidium iodide staining based flow cytometry analysis (reference value: 2.01 %)
# Type: functional
# Conditions: not given
row,SMILES,Activity [%]
1,CCN(c1cc(/C=C/c2cccc(CN(C)C)c2)cc(C(=O)NCc2c3c(c(C)[nH]c2=O)CCCC3)c1C)C1CCOCC1,36.2

# Test system: SUD4
# Assay: Induction of apoptosis in human SUDHL4 cells assessed as necrotic cells at 2 uM after 6 days by AnnexinV/propidium iodide staining based flow cytometry analysis (reference value: 0.737 %)
# Type: functional
# Conditions: not given
row,SMILES,Activity [%]
1,CCN(c1cc(/C=C/c2cccc(CN(C)C)c2)cc(C(=O)NCc2c3c(c(C)[nH]c2=O)CCCC3)c1C)C1CCOCC1,4.14

# Test system: SUD4
# Assay: Induction of apoptosis in human SUDHL4 cells assessed as viable cells at 2 uM after 6 days by AnnexinV/propidium iodide staining based flow cytometry analysis (reference value: 92.7 %)
# Type: functional
# Conditions: SU-DHL-4, 144 h, read-out: Activity
row,SMILES,viability at 2 µM [%]
1,CCN(c1cc(/C=C/c2cccc(CN(C)C)c2)cc(C(=O)NCc2c3c(c(C)[nH]c2=O)CCCC3)c1C)C1CCOCC1,25.5

# Test system: SUD4
# Assay: Induction of apoptosis in human SUDHL4 cells assessed as early apoptotic cells at 2 uM after 6 days by AnnexinV/propidium iodide staining based flow cytometry analysis (reference value: 0.061 %)
# Type: functional
# Conditions: not given
row,SMILES,Activity [%]
1,CCN(c1cc(/C=C/c2cccc(CN(C)C)c2)cc(C(=O)NCc2c3c(c(C)[nH]c2=O)CCCC3)c1C)C1CCOCC1,1.28

# Test system: SUD4
# Assay: Induction of apoptosis in human SUDHL4 cells assessed as late apoptotic cells at 2 uM after 6 days by AnnexinV/propidium iodide staining based flow cytometry analysis (reference value: 2.01 %)
# Type: functional
# Conditions: not given
row,SMILES,Activity [%]
1,CCN(c1cc(/C=C/c2cccc(CN(C)C)c2)cc(C(=O)NCc2c3c(c(C)[nH]c2=O)CCCC3)c1C)C1CCOCC1,69.1

# Test system: SUD4
# Assay: Induction of apoptosis in human SUDHL4 cells assessed as necrotic cells at 4 uM after 6 days by AnnexinV/propidium iodide staining based flow cytometry analysis (reference value: 0.737 %)
# Type: functional
# Conditions: not given
row,SMILES,Activity [%]
1,CCN(c1cc(/C=C/c2cccc(CN(C)C)c2)cc(C(=O)NCc2c3c(c(C)[nH]c2=O)CCCC3)c1C)C1CCOCC1,0.824

# Test system: SUD4
# Assay: Induction of apoptosis in human SUDHL4 cells assessed as viable cells at 4 uM after 6 days by AnnexinV/propidium iodide staining based flow cytometry analysis (reference value: 92.7 %)
# Type: functional
# Conditions: SU-DHL-4, 144 h, read-out: Activity
row,SMILES,viability at 4 µM [%]
1,CCN(c1cc(/C=C/c2cccc(CN(C)C)c2)cc(C(=O)NCc2c3c(c(C)[nH]c2=O)CCCC3)c1C)C1CCOCC1,5.91

# Test system: SUD4
# Assay: Induction of apoptosis in human SUDHL4 cells assessed as early apoptotic cells at 4 uM after 6 days by AnnexinV/propidium iodide staining based flow cytometry analysis (reference value: 0.061 %)
# Type: functional
# Conditions: not given
row,SMILES,Activity [%]
1,CCN(c1cc(/C=C/c2cccc(CN(C)C)c2)cc(C(=O)NCc2c3c(c(C)[nH]c2=O)CCCC3)c1C)C1CCOCC1,0.369

# Test system: SUD4
# Assay: Induction of apoptosis in human SUDHL4 cells assessed as late apoptotic cells at 4 uM after 6 days by AnnexinV/propidium iodide staining based flow cytometry analysis (reference value: 2.01 %)
# Type: functional
# Conditions: not given
row,SMILES,Activity [%]
1,CCN(c1cc(/C=C/c2cccc(CN(C)C)c2)cc(C(=O)NCc2c3c(c(C)[nH]c2=O)CCCC3)c1C)C1CCOCC1,92.9

# Biological target: Histone-lysine N-methyltransferase EZH2 (Homo sapiens, UniProt Q15910)
# Sequence (Q15910 whole entry, looked up): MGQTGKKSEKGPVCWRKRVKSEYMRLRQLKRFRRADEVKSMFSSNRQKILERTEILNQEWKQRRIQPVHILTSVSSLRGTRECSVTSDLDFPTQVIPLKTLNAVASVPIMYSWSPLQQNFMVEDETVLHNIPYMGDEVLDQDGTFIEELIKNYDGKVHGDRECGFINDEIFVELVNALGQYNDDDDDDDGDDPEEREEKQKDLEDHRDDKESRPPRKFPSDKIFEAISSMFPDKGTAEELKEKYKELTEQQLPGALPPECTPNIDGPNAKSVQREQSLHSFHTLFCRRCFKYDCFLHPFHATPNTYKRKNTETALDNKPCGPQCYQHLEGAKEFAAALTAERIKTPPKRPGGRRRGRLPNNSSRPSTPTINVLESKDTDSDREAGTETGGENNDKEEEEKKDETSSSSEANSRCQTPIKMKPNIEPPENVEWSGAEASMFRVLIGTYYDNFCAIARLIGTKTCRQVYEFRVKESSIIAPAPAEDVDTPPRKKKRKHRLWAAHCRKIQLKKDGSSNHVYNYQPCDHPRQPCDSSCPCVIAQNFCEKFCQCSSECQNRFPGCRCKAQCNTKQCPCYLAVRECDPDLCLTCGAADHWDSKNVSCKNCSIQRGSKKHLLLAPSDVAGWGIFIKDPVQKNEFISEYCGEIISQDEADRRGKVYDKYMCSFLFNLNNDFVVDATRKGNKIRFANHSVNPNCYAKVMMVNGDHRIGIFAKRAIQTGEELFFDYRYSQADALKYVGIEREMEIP
# Assay: Inhibition of EZH2 in human SUDHL4 cells assessed as reduction in H3K27 methylation measured after 6 days by western blot analysis
# Type: cell-based
# Conditions: SUD4
row,SMILES,inhibition
1,CCN(c1cc(/C=C/c2cccc(CN(C)C)c2)cc(C(=O)NCc2c3c(c(C)[nH]c2=O)CCCC3)c1C)C1CCOCC1,Dose-dependent effect
